This is an account of results in article PMC10674894 (Viruses, 2023).

The subject of one data set is Vero cells. Kind of data set: Cytotoxicity MTT assay in Vero cells (MNTD, CC50). To be noted: Table S1; Vero cells. The data set is classed as cell-based, African green monkey. In general terms: Tetrazolium dyes change colour on reduction, which living cells bring about.
A further data set relates to CHIKV DRDE-07. Kind of data set: In vitro screening against CHIKV (CPE inhibition and MTT cell viability). The data set is classed as cell-based, chikungunya virus. The note with it: Table S1, CHIKV-infected Vero cells; for % Cell viability: 72 hpi, MTT assay; for CPE: arbitrary score of cytopathic effect at >48 hpi.

On to `CC1=C(C(=O)OCCN(C)C)C(c2ccc(C)cc2)NC(=O)N1` (stereo not drawn) [DCR74, 2-(dimethylamino)ethyl 6-methyl-4-(4-methylphenyl)-2-oxo-1,2,3,4-tetrahydropyrimidine-5-carboxylate], for which the MNTD with Vero cells is given as 31.25 µM. Also, in the data set on CHIKV DRDE-07, the “% Cell viability” value amounted to 12.75% and the CPE entry is given as “++++ (>60% (++++))”.
The matching figures for `CCOc1ccc(C2NC(=O)NC(C)=C2C(=O)OCC[N+](C)(C)C)cc1` (stereo not drawn) [DCR75, {2-[4-(4-ethoxyphenyl)-6-methyl-2-oxo-1,2,3,4-tetrahydropyrimidine-5-carbonyloxy]ethyl}trimethylazanium]: 31.25 µM, 10.21% and “++++ (>60% (++++))”.
For `COc1ccc(-c2nc(CC(C)=O)no2)cc1` [DCR76, 1-[5-(4-methoxyphenyl)-1,2,4-oxadiazol-3-yl]propan-2-one], in that order: 125 µM, 19.42% and “++++ (>60% (++++))”.
The matching figures for `CC(=O)Cc1noc(-c2ccc([N+](=O)[O-])cc2)n1` [DCR77, 1-[5-(4-nitrophenyl)-1,2,4-oxadiazol-3-yl]propan-2-one]: 125 µM, 10.43% and “++++ (>60% (++++))”.
In the case of `CC(=O)Cc1noc(-c2ccccc2)n1` [DCR78, 1-(5-phenyl-1,2,4-oxadiazol-3-yl)propan-2-one], in the data set with Vero cells, the MNTD came to 125 µM. In the data set on CHIKV DRDE-07, the “% Cell viability” value is 17.32% and the CPE result is reported as “++++ (>60% (++++))”.
For `CC(=O)Cc1noc(C(c2ccccc2)c2ccccc2)n1` [DCR79, 1-[5-(diphenylmethyl)-1,2,4-oxadiazol-3-yl]propan-2-one], in that order: 125 µM, 16.42% and “++++ (>60% (++++))”.
The matching figures for `CC(=O)Cc1noc(C2CCCCC2)n1` [DCR80, 1-(5-cyclohexyl-1,2,4-oxadiazol-3-yl)propan-2-one]: 125 µM, 29.64% and “++++ (>60% (++++))”.
The matching figures for `CC(=O)Cc1noc(-c2cccc([N+](=O)[O-])c2)n1` [DCR81, 1-[5-(3-nitrophenyl)-1,2,4-oxadiazol-3-yl]propan-2-one]: 125 µM, 0% and “++++ (>60% (++++))”.
On to `CC(=O)Cc1noc(-c2ccncc2)n1` [DCR82, 1-[5-(pyridin-4-yl)-1,2,4-oxadiazol-3-yl]propan-2-one], for which, in the data set on Vero cells, the MNTD amounted to 125 µM. Besides, in the data set on CHIKV DRDE-07, the “% Cell viability” value is 14.42% and the CPE result is reported as “++++ (>60% (++++))”.
The matching figures for `CC(=O)Cc1noc(-c2cc(Cl)ccc2Cl)n1` [DCR83, 1-[5-(2,5-dichlorophenyl)-1,2,4-oxadiazol-3-yl]propan-2-one]: 230.55 µM, 10.49% and “++++ (>60% (++++))”.
In the case of `CC(=O)Cc1noc(-c2ccccn2)n1` [DCR84, 1-[5-(pyridin-2-yl)-1,2,4-oxadiazol-3-yl]propan-2-one], in the data set with Vero cells, the MNTD worked out at 125 µM. In the data set with CHIKV DRDE-07, the “% Cell viability” value is 2.86% and the CPE result is on record as “++++ (>60% (++++))”.
For `CC(=O)Cc1noc(-c2ccc(Br)cc2)n1` [DCR85, 1-[5-(4-bromophenyl)-1,2,4-oxadiazol-3-yl]propan-2-one], in that order: 222.34 µM, 10.38% and “++++ (>60% (++++))”.
`C#CCOC(=O)C1=C(C)NC(=O)NC1c1ccc(OC)cc1` (stereo not drawn) [DCR86, prop-2-yn-1-yl 4-(4-methoxyphenyl)-6-methyl-2-oxo-1,2,3,4-tetrahydropyrimidine-5-carboxylate] returned an MNTD with Vero cells of 208.12 µM. Further, in the data set with CHIKV DRDE-07, the “% Cell viability” value was found to be 10.59% and the CPE entry was “++++ (>60% (++++))”.
The matching figures for `C#CCOC(=O)C1=C(C)NC(=O)NC1c1ccc(CC)cc1` (stereo not drawn) [DCR87, prop-2-yn-1-yl 4-(4-ethylphenyl)-6-methyl-2-oxo-1,2,3,4-tetrahydropyrimidine-5-carboxylate]: 104.58 µM, 11.61% and “++++ (>60% (++++))”.
For `C#CCOC(=O)C1=C(C)NC(=O)NC1c1ccc(Cl)cc1` (stereo not drawn) [DCR88, prop-2-yn-1-yl 4-(4-chlorophenyl)-6-methyl-2-oxo-1,2,3,4-tetrahydropyrimidine-5-carboxylate], in that order: 205.1 µM, 11.05% and “++++ (>60% (++++))”.
For `C#CCOC(=O)C1=C(C)NC(=O)NC1c1cccc(Cl)c1` (stereo not drawn) [DCR89, prop-2-yn-1-yl 4-(3-chlorophenyl)-6-methyl-2-oxo-1,2,3,4-tetrahydropyrimidine-5-carboxylate], in that order: 205.1 µM, 10.94% and “++++ (>60% (++++))”.
Consider `C#CCOC(=O)C1=C(C)NC(=O)NC1c1ccc(F)cc1` (stereo not drawn) [DCR90, prop-2-yn-1-yl 4-(4-fluorophenyl)-6-methyl-2-oxo-1,2,3,4-tetrahydropyrimidine-5-carboxylate], for which, in the data set with Vero cells, the MNTD was found to be 433.62 µM. In addition, in the data set with CHIKV DRDE-07, the “% Cell viability” value is reported as 12.59% and the CPE entry was “++++ (>60% (++++))”.
The matching figures for `C#CCOC(=O)C1=C(C)NC(=O)NC1c1ccc(C(F)(F)F)cc1` (stereo not drawn) [DCR91, prop-2-yn-1-yl 6-methyl-2-oxo-4-[4-(trifluoromethyl)phenyl]-1,2,3,4-tetrahydropyrimidine-5-carboxylate]: 369.52 µM, 13.12% and “++++ (>60% (++++))”.
For `C#CCOC(=O)C1=C(C)NC(=O)NC1c1ccccc1` (stereo not drawn) [DCR92, prop-2-yn-1-yl 6-methyl-2-oxo-4-phenyl-1,2,3,4-tetrahydropyrimidine-5-carboxylate], in that order: 462.48 µM, 12.8% and “++++ (>60% (++++))”.
For `C#CCOC(=O)C1=C(C)NC(=O)NC1c1ccc(OCC)cc1` (stereo not drawn) [DCR94, prop-2-yn-1-yl 4-(4-ethoxyphenyl)-6-methyl-2-oxo-1,2,3,4-tetrahydropyrimidine-5-carboxylate], in that order: 198.83 µM, 19.5% and “++++ (>60% (++++))”.
With `C#CCOC(=O)C1=C(C)NC(=O)NC1c1cccc(F)c1` (stereo not drawn) [DCR95, prop-2-yn-1-yl 4-(3-fluorophenyl)-6-methyl-2-oxo-1,2,3,4-tetrahydropyrimidine-5-carboxylate], in the data set with Vero cells, the MNTD came out at 433.62 µM. In the data set with CHIKV DRDE-07, the “% Cell viability” value turned out to be 11.54% and the CPE entry is “++++ (>60% (++++))”.
Take `COc1ccc(C2NC(=O)NC(C)=C2C(=O)OCCC(C)C)cc1` (stereo not drawn) [DCR96, 3-methylbutyl 4-(4-methoxyphenyl)-6-methyl-2-oxo-1,2,3,4-tetrahydropyrimidine-5-carboxylate]: the MNTD in the data set on Vero cells is 376.06 µM. For the same compound, in the data set on CHIKV DRDE-07, the “% Cell viability” value is recorded as 11.71% and the CPE entry is “++++ (>60% (++++))”.
